Data on one sequence can be found in paper PMC10762068, “Selective blockade of Cav1.2 (α1C) versus Cav1.3 (α1D) L-type calcium channels by the black mamba toxin calciseptine” (Nature Communications, 2024).

The subject of data set [1] is isolated perfused hearts from mice. Description: Whole heart contractility and heart rate, Langendorff perfused mouse heart. The conditions noted are these: native Cas 100 nM, n=5. The method, then: Hearts were isolated from adult male mice anaesthetized with a first intraperitoneal injection of a mixture comprising ketamine (100 mg/kg) and xylazine (10 mg/kg), and a second one of sodium pentobarbital (45 mg/kg; Ceva Santé Animale, France). An intraperitoneal injection of heparin (7500IU/kg; Sanofi Aventis, France) was administered in order to avoid thrombus formation. A thoracotomy was performed and beating hearts were quickly removed and excised into ice-cold modified Krebs-Henseleit buffer containing (mM): NaCl 116; KCl 5; MgSO4 1.1; NaH2P0_4 0.35; NaHCO3 27; CaC1_2 1.8 and glucose 10. Buffer was gassed with 95% O2 and 5% CO2, giving a pH of 7.4 at 37 °C. Before use, the buffer was initially passed through a 0.2 µm filter (Sarstedt, USA). The aorta was cannulated under magnification and hearts were quickly mounted and perfused on the Langendorff perfusion system (Isolated heart system, EMKA Technologies, France). The coronary circulation was perfused at a constant pressure (70 mmHg) over a 1 to 4 ml/min flow range with modified Krebs-Henseleit buffer. During the stabilization phase, the heart was continuously perfused with modified Krebs-Henseleit and the electrocardiogram (ECG) was recorded through Ag/AgCl electrodes positioned on the right atrium and near the apex. Heart temperature was of 37 °C as continuously assessed by a probe positioned on the base of the heart and recorded by using a TH-5 monitoring thermometer (Phymep, USA). LV pressure was continuously measured by a home-made balloon inserted into the LV cavity by the left atrium and connected to the EMKA amplifier. After 20 min of stabilization (baseline), 100 nM Cas was perfused into the heart for 7 min. Then, the modified Krebs-Henseleit buffer was perfused for 1 h allowing to wash the effects of the Cas toxin. During the whole ex vivo protocol, the left ventricular pressure signals were continuously digitized at […] and recorded using an IOX data acquisition system (EMKA Technologies, France). Data were analyzed using ecgAUTOv3.3.3.12 (EMKA technologies) and MATLAB-R2021b (The MathWorks) custom-made script
(§1) In all experiments of cellular electrophysiology, we employed synthetized analog of Cas, commercially available at Latoxan (ID: L8109). The native peptide was purified from the venom of Dendroaspis polylepis purchased from Latoxan, as previoulsly described. The pure peptide was obtained after gel filtration, cation exchange and C18 reversed phase chromatography. Its measured molecular mass (7036.26 Da average) was in accordance with the mass calculated from sequence data (7036.22 Da).

The test system of data set [2] is DHP-sensitive Ca2+ channel in smooth muscle cells of the guinea-pig portal vein. The conditions noted are these: cell-attached, 90 mM Ba2+ in the pipette; ref Teramoto et al, Pflugers Arch 1996; cited from earlier work. From the text: This po int deserves further specific investigations and addit ional structural studies are required to elucidate the interaction and binding properties between Cas and Cav1.2 channel.

In data set [3] the test system is ICav1.2 in SAN myocytes from Cav1.3^−/− mice. Description: ICaL, patch clamp, SAN myocytes from Cav1.3-/- mice. As to conditions: for degree of inhibition of ICav1.2 / percentage of ICaL block: step 0 mV, mean ± SEM; for degree of inhibition of ICav1.2: n=6/N=2; for percentage of ICaL block: n=7/N=2; for L-type Ca2+ current density: Cas 1 µM alone or + Nife 3 µM, n=8. In kind it is cell-based, mouse. On the procedure:
Hearts from Wild-Type and Cav1.3^−/− mice were removed under general anesthesia consisting of 0.01 mg/g xylazine (2% Rompun; Bayer AG) and 0.1 mg/g ketamine (Imalgène;Merial) and immersed in a pre-warmed (36 °C) Tyrode solution containing (mM): 140 NaCl, 5.4 KCl, 1 MgCl2, 1.8 CaCl2, 5.5 D-glucose, and 5 Hepes (adjusted to pH 7.4 with NaOH). […] SAN tissue was excised and transferred into a low-Ca^2+ solution containing (mM): 140 NaCl, 5.4 KCl, 0.5 MgCl2, 0.2 CaCl2, 1.2 KH2PO4, 50 taurine, 5.5 D-glucose, 1 mg/mL BSA, and 5 Hepes–NaOH (adjusted to pH 6.9 with NaOH) for 5 min. Then, enzymatic digestion was carried out for 20-25 min at 36 °C in the low-Ca^2+ solution containing LiberaseTH Research Grade (0.15 mg/mL; Roche, Mannheim, Germany) and elastase (0.5 mg/mL; Worthington, Lakewood, NJ, USA). Digestion was stopped by washing the SAN in a “Kraftbrühe” (KB) medium containing (mM) 100 K-glutamate, 10 K-aspartate, 25 KCl, 10 KH2PO4, 2 MgSO4, 20 taurine, 5 creatine, 0.5 EGTA, 20 D-glucose, 5 Hepes, and 1 mg/mL BSA (adjusted to pH 7.2 with KOH). Single SAN cells were then dissociated from the SAN tissue by manual agitation using a flame-forged Pasteur’s pipette. To recover the automaticity of the SAN cells, Ca^2+ was gradually reintroduced in the cell’s storage solution to a final concentration of 1.8 mM. SAN cells were then left to rest for 1 h before recordings.
For patch-clamp recordings of SAN myocytes, cells were harvested in custom-made chambers with glass bottoms for cell attachment. Cells were then super-fused with Tyrode’s solution warmed at 36 °C before recording. Action potentials and ionic currents were recorded using an Axon multi-clamp patch-clamp 700B amplifier. Voltage-gated L-type Ca^2+ currents (ICaL) were recorded using standard whole cell patch-clamp configuration. For recording ICaL, we used an extracellular recording solution contained (mM): 135 tetraethylammonium chloride (TEA-Cl), 10 4-aminopyridine (4-AP), 1 MgCl2, 0.03 tetrodotoxin (TTX), 1 g/L Glucose, 2 CaCl2, 10 Hepes, (adjusted to pH = 7.2 with TEAOH). […] Pacemaker activity was recorded by the perforated patch-clamp technique using escin (40 µg/ml). For recording cell automaticity glass pipettes were filled with the intracellular solution contained (mM): 80 K-Aspartate, 50 KCl, 1 MgCl2, 5 HEPES, 2 CaCl2, 5 EGTA, 3 ATP-Na+ salt; pH was adjusted to 7.2 with KOH. Escin was dissolved in sterile H2O and added to the intracellular solution right before each experiment.
as §1
(In general: The patch-clamp technique gives a direct electrical read-out from membranes.)

Positions of bridges follow the written chain, without caps; N, C: chain ends. No end group written: not given here.

For “RICYIHKASLPRATKTCVENTCYKMFIRTQREYISERGCGCPTAMWPYQTECCKGDRCNK (disulfide 3-22, 17-39, 41-52, 53-58 (inferred)) [Cas, calciseptine]”, the episodes of arrhythmia result in data set [1] is listed as “did not observe episodes of arrhythmia”. In data set [1] (perfused 7 min, 37 °C, before 51 ± 3 mmHg, mean ± SEM), the “left ventricular (LV) contraction amplitude” value is reported as 9 ± 2 mmHg. Further, the “contraction velocity (dP/dt max)” value in data set [1] (before 1.7 ± 0.2, mean ± SEM) is 0.4 ± 0.1 mmHg/ms. Besides, the baseline diastolic pressure in data set [1] (before 8 ± 2 mmHg, mean ± SEM) is given as 8 ± 3 mmHg. Besides, the “relaxation time constant (Ƭ)” value in data set [1] (before 10 ± 1 ms, not affected, mean ± SEM) is 13 ± 2 ms. In data set [1] (before 54 ± 1 ms, not affected, mean ± SEM), the “time-to-peak interval (time to maximal pressure)” value is reported as 50 ± 3 ms. The “averaged inter-beat (RR) interval” value in data set [1] (before 273 ± 17 ms, p > 0.05, mean ± SEM) is given as 271 ± 17 ms. Besides, the “relaxation velocity (dP/dt min)” value in data set [1] (before −1.2 ± 0.1, mean ± SEM) is on record as −0.1 ± 0.1 mmHg/ms. Further, the “block of 25-pS and 12-pS channel conductances” value in data set [2] is recorded as “Both conductances were blocked”. For the same sequence, the “degree of inhibition of ICav1.2” value in data set [3] (Cas 300 nM, 0.2 Hz, holding −60 mV) was determined as 62 ± 6%; in data set [3] (Cas 300 nM, 1 Hz, holding −60 mV) it was 63 ± 6%; in data set [3] (Cas 300 nM, 5 Hz, holding −60 mV), 58 ± 8%. In addition, the “voltage- or use-dependence of ICav1.2 inhibition” value in data set [3] (Cas 300 nM, holding −40 / −60 mV, 0.2, 1, 5 Hz) is “not voltage- or use-dependent”. The “percentage of ICaL block” value in data set [3] (Cas 300 nM, holding −40 mV) is on record as 68 ± 3%; in data set [3] (Cas 300 nM, holding −60 mV), 67 ± 4%. Further, the “L-type Ca2+ current density” value in data set [3] (0 mV, Ctrl -4.14± 0.56) was -0.45± 0.14 pA/pF; in data set [3] (+10 mV, Ctrl -4.69± 0.57) it was -0.17± 0.14 pA/pF; in data set [3] (+20 mV, Ctrl -3.93± 0.56), -0.13± 0.21 pA/pF; in data set [3] (+40 mV, Ctrl -1.15± 0.37), 0.37± 0.29 pA/pF; in data set [3] (-10 mV, Ctrl -2.49± 0.39) it was -0.17± 0.07 pA/pF; in data set [3] (-20 mV, Ctrl -1.16± 0.20), -0.08± 0.03 pA/pF. Also, in data set [3] (-25 mV, Ctrl -0.97± 0.21), the “L-type Ca2+ current density” value is -0.25± 0.13 pA/pF. Moreover, the “block of ICaL” value in data set [3] (Cas 1 µM, holding −55 mV, n=8/N=2) is on record as “totally blocked ICaL”. Further, in data set [3] (Cav1.3^−/− SAN myocytes after Cas perfusion), the “residual ICaL after Cas” value is listed as “No residual ICaL was recorded”.
